Values of other authors as cited in patent US20200146297A1, “FAST SYMPTOM HERBICIDAL COMPOSITIONS CONTAINING AN ORGANO[…], BI[…] A[…] SURFACTANT” (Monsanto Technology LLC, priority 2016, published 2020).

Key:
[1] = known to decompose
plant = conditions: after treatment

| Compound | pH at which decomposition occurs [1] | time until visual symptoms of treatment appear (plant) |
| --- | --- | --- |
| c1cc[n+]2c(c1)-c1cccc[n+]1CC2 [Diquat dibromide] | greater than 7 |  |
| O=C(O)CNCP(=O)(O)O [glyphosate, N-(phosphonomethyl)glycine] |  | one week or more |
